Reference: US20240122180A1, “FUNGICIDAL HALOMETHYL KETONES AND HYDRATES AND THEIR MIXTURES” (FMC Corporation, priority 2020, published 2024)

Columns and labels:
[1] = tested on: Phakopsora pachyrhizi (the causal agent of Asian soybean rust); assay: Test A: preventive spray on soybean seedlings, visual disease rating (100 = 100% control; * 50 ppm, ** 10 ppm, *** 250 ppm); format: in vivo; settings: 100 = 100% disease control; for pest or weed control at 10 ppm / pest or weed control at 50 ppm: Phakopsora pachyrhizi
Outline: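 Preventive test: one day after spraying compound (acetone/water suspension, 250 ppm PEG400), seedlings received rust spore inoculum, 24 h in saturated air then 8 days in growth chamber, both at 22 °C. Disease control scored visually, 100 = complete, 0 = none, relative to untreated controls.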

[2] = tested on: Puccinia recondita f. sp. tritici (the causal agent of wheat leaf rust); assay: Test B: preventive spray on wheat seedlings, disease rating (100 = 100% control; * 50 ppm, ** 10 ppm, *** 250 ppm); format: in vivo; settings: 100 = 100% disease control; for pest or weed control at 10 ppm / pest or weed control at 50 ppm: Puccinia recondita
Outline: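 Preventive test: Puccinia recondita f. sp. tritici spores were inoculated one day after run-off spraying of wheat seedlings with test suspension (acetone/water 50/50, 250 ppm PEG400). After 24 h in saturated air and 6 days in a growth chamber, both at 20° C, control was scored 0–100 versus untreated plants.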

[3] = 10 ppm test suspension, 0 = no control
[4] = 50 ppm test suspension, 0 = no control
[5] = 10 ppm test suspension, soybean seedlings
[6] = 10 ppm test suspension, wheat seedlings
[7] = 50 ppm test suspension, soybean seedlings
[8] = 50 ppm test suspension, wheat seedlings

SMILES: CCO/C(=C\Oc1ccc(Cn2ccc(C(=O)OCCCCl)n2)cc1)C(F)(F)F [compound 362]
- Test A disease control rating [1, 3]: 100%
- Test B disease control rating [2, 3]: 0%

SMILES: CCOC(=COc1ccc(NC(=O)C2CC2)cc1)C(F)(F)F [compound 371]
- Test A disease control rating [1, 4]: 0%
- Test B disease control rating [2, 4]: 77%

SMILES: CCO/C(=C\Oc1ccc(Cn2nc(C)cc2C)cc1)C(F)(F)F [compound 152]
- Test A disease control rating [1, 5]: 0%
- Test B disease control rating [2, 6]: 0%

SMILES: CCOC(=O)c1cn(Cc2ccc(O/C=C(\OCC)C(F)(F)F)cc2)cn1 [compound 153]
- Test A disease control rating [1, 5]: 100%
- Test B disease control rating [2, 6]: 0%

SMILES: COCCNC(=O)c1csc(Cc2ccc(OCC(O)(O)C(F)(F)F)cc2)n1 [Compound 223]
- Test A disease control rating [1, 5]: 75%
- Test B disease control rating [2, 6]: 0%

SMILES: CCCOC(=O)c1ccc(O/C=C(\OCC)C(F)(F)F)cc1 [compound 94]
- Test A disease control rating [1, 5]: 0%
- Test B disease control rating [2, 6]: 0%

SMILES: CCOC(=O)c1cnn(Cc2ccc(OCC(O)(O)C(F)(F)F)cc2)c1 [compound 227]
- Test A disease control rating [1, 5]: 99%
- Test B disease control rating [2, 6]: 55%

SMILES: CCO/C(=C\Oc1ccc(Cn2ccc(C(=O)OCC(C)C)n2)cc1)C(F)(F)F [compound 357]
- Test A disease control rating [1, 3]: 100%
- Test B disease control rating [2, 3]: 9%

SMILES: CCOC(=COc1ccc(CCl)cc1)C(F)(F)F [compound 434]
- Test A disease control rating [1, 4]: 0%
- Test B disease control rating [2, 4]: 0%

SMILES: FC(F)(F)C1(COc2ccc(CNC(=S)NC3CCCCC3)cc2)OCCO1 [compound 77]
- Test A disease control rating [1, 5]: 99%
- Test B disease control rating [2, 6]: 0%

SMILES: CCO/C(=C\Oc1ccc(CNC(=O)C(C)OC)cc1)C(F)(F)F (centres unmarked) [compound 114]
- Test A disease control rating [1, 7]: 44%
- Test B disease control rating [2, 8]: 0%

SMILES: CCO/C(=C\Oc1cccc(Cc2nc(C(=O)NCC(F)F)cs2)c1)C(F)(F)F [compound 398]
- pest or weed control at 10 ppm [1, 3]: 0%
- pest or weed control at 10 ppm [2, 3]: 0%

SMILES: COC(COc1cccc(Cn2cc(Br)cn2)c1)(O[Si](C)(C)C)C(F)(F)F (centres unmarked) [compound 385]
- pest or weed control at 50 ppm [1, 4]: 100%
- pest or weed control at 50 ppm [2, 4]: 68%

SMILES: CCOC(=COc1ccc(Cn2ccc(C(=O)OC)n2)cc1)C(F)(F)F [compound 251]
- Test A disease control rating [1, 5]: 100%
- Test B disease control rating [2, 6]: 9%

SMILES: CCO/C(=C\Oc1cccc(Cn2cc(C(=O)OCCC(F)=C(F)F)cn2)c1)C(F)(F)F [compound 349]
- Test A disease control rating [1, 3]: 100%
- Test B disease control rating [2, 3]: 0%

SMILES: CCOC(=COc1ccc(Cc2ccnc(SC)n2)cc1)C(F)(F)F [compound 308]
- Test A disease control rating [1, 4]: 25%
- Test B disease control rating [2, 4]: 0%

SMILES: CC(C)COC(=O)NCc1ccc(OCC2(C(F)(F)F)OCCO2)cc1 [compound 112]
- Test A disease control rating [1, 5]: 0%
- Test B disease control rating [2, 6]: 0%

SMILES: N#CCOC(=O)c1cnn(Cc2ccc(OCC3(C(F)(F)F)OCCO3)cc2)c1 [compound 172]
- Test A disease control rating [1, 5]: 100%
- Test B disease control rating [2, 6]: 0%

SMILES: O=C(OCC1CCCCC1)c1cnn(Cc2ccc(OCC3(C(F)(F)F)OCCO3)cc2)c1 [compound 272]
- Test A disease control rating [1, 3]: 100%
- Test B disease control rating [2, 3]: 0%

SMILES: CCOC(=O)c1cnn(Cc2cc(O/C=C(\OCC)C(F)(F)F)ccc2F)c1 [compound 302]
- Test A disease control rating [1, 4]: 99%
- Test B disease control rating [2, 4]: 0%

SMILES: CCO/C(=C\Oc1ccc(Cn2cnc(SC)n2)cc1)C(F)(F)F [compound 261]
- Test A disease control rating [1, 3]: 0%
- Test B disease control rating [2, 3]: 0%

SMILES: FC(F)(F)C1(COc2ccc(Oc3ccccc3)cc2)OCCO1 [compound 191]
- Test A disease control rating [1, 5]: 0%
- Test B disease control rating [2, 6]: 0%

SMILES: CN(C)C(=O)C1=NOC(Cc2ccc(OCC3(C(F)(F)F)OCCO3)cc2)C1 (centres unmarked) [compound 290]
- Test A disease control rating [1, 4]: 50%
- Test B disease control rating [2, 4]: 19%

SMILES: CCO/C(=C\Oc1ccc(Cn2ccnc2)cc1)C(F)(F)F [compound 156]
- Test A disease control rating [1, 5]: 0%
- Test B disease control rating [2, 6]: 0%

SMILES: CCO/C(=C\Oc1ccc(Cn2cc(C(F)(F)F)cn2)cc1)C(F)(F)F [compound 182]
- Test A disease control rating [1, 5]: 0%
- Test B disease control rating [2, 6]: 0%

SMILES: CCOC(=O)C1CCN(Cc2ccc(O/C=C(\OCC)C(F)(F)F)cc2)CC1 [compound 268]
- Test A disease control rating [1, 3]: 99%
- Test B disease control rating [2, 3]: 0%

SMILES: O=C(OCC1OCCO1)c1cnn(Cc2ccc(OCC3(C(F)(F)F)OCCO3)cc2)c1 [compound 204]
- Test A disease control rating [1, 5]: 100%
- Test B disease control rating [2, 6]: 0%

SMILES: CCOC(=COc1ccc(CN2CCC(C(=O)OC)C2)cc1)C(F)(F)F (centres unmarked) [compound 310]
- Test A disease control rating [1, 3]: 100%
- Test B disease control rating [2, 3]: 0%

SMILES: CCOC(=O)c1cnn(Cc2ccc(OC(F)(F)C3(C(F)(F)F)OCCO3)cc2)c1 [compound 319]
- Test A disease control rating [1, 4]: 100%
- Test B disease control rating [2, 4]: 41%

SMILES: CCO/C(=C\Oc1ccc(Cn2cnc(C(=O)OC)n2)cc1)C(F)(F)F [compound 123]
- Test A disease control rating [1, 5]: 98%
- Test B disease control rating [2, 6]: 0%

SMILES: CCCCOC(=O)c1cnn(Cc2ccc(OCC3(C(F)(F)F)OCCO3)cc2)c1 [compound 125]
- Test A disease control rating [1, 5]: 100%
- Test B disease control rating [2, 6]: 0%

SMILES: CCO/C(=C\Oc1ccc(C(=O)OC)cc1)C(F)(F)F [compound 230]
- Test A disease control rating [1, 5]: 0%
- Test B disease control rating [2, 6]: 0%

SMILES: CCOC(=O)c1cnn(Cc2ccc(C/C=C(\OCC)C(F)(F)F)cc2)c1 [compound 140]
- Test A disease control rating [1, 5]: 98%
- Test B disease control rating [2, 6]: 23%

SMILES: CCOC(=COc1ccc([N+](=O)[O-])cc1)C(F)(F)F [compound 279]
- Test A disease control rating [1, 4]: 0%
- Test B disease control rating [2, 4]: 0%

SMILES: N#Cc1cnn(Cc2ccc(OCC3(C(F)(F)F)OCCO3)cc2)c1 [compound 209]
- Test A disease control rating [1, 5]: 89%
- Test B disease control rating [2, 6]: 0%

SMILES: CCO/C(=C\Oc1cccc(Cn2cc(C(=O)OCC3CC3)cn2)c1)C(F)(F)F [compound 341]
- Test A disease control rating [1, 3]: 100%
- Test B disease control rating [2, 3]: 0%

SMILES: Cc1ccc(OCC2(C(F)(F)F)OCCO2)c(F)c1 [compound 442]
- pest or weed control at 50 ppm [1, 4]: 0%
- pest or weed control at 50 ppm [2, 4]: 0%

SMILES: NCc1ccc(OCC2(C(F)(F)F)OCCO2)cc1 [compound 174]
- Test A disease control rating [1, 5]: 0%
- Test B disease control rating [2, 6]: 0%

SMILES: C=C(C)COC(=O)c1cnn(Cc2cccc(O/C=C(\OCC)C(F)(F)F)c2)c1 [compound 335]
- Test A disease control rating [1, 3]: 100%
- Test B disease control rating [2, 3]: 0%

SMILES: CN(C)S(=O)(=O)c1ccc(OCC2(C(F)(F)F)OCCO2)cc1 [compound 25]
- Test A disease control rating [1, 5]: 0%
- Test B disease control rating [2, 6]: 0%

SMILES: CCO/C(=C\Oc1ccc(-c2noc(C(F)(F)F)n2)cc1)C(F)(F)F [compound 143]
- Test A disease control rating [1, 5]: 0%
- Test B disease control rating [2, 6]: 0%

SMILES: CCOC(=O)c1nccn1Cc1cccc(O/C=C(\OCC)C(F)(F)F)c1 [compound 367]
- pest or weed control at 10 ppm [1, 3]: 0%
- pest or weed control at 10 ppm [2, 3]: 0%

SMILES: CCO/C(=C\Oc1ccc(C(C)=O)cc1)C(F)(F)F [compound 79]
- Test A disease control rating [1, 7]: 0%
- Test B disease control rating [2, 8]: 0%

SMILES: CCOC(=COc1ccc(Cn2nccc2C(=O)OC)cc1)C(F)(F)F [compound 250]
- Test A disease control rating [1, 5]: 0%
- Test B disease control rating [2, 6]: 0%

SMILES: CCOC(=O)c1cnn(Cc2ccc(O/C=C(\OCCOC)C(F)(F)F)cc2)c1 [compound 54]
- Test A disease control rating [1, 5]: 0%
- Test B disease control rating [2, 6]: 0%

SMILES: CC#CCOC(=O)c1ccn(Cc2ccc(O/C=C(\OCC)C(F)(F)F)cc2)n1 [compound 293]
- Test A disease control rating [1, 3]: 100%
- Test B disease control rating [2, 3]: 0%

SMILES: CCOC(=O)c1ccc(O/C=C(\OCC)C(F)(F)F)cc1 [compound 95]
- Test A disease control rating [1, 5]: 0%
- Test B disease control rating [2, 6]: 0%

SMILES: CCO/C(=C\Oc1ccc(Cn2ccc(C(=O)OCCOC)n2)cc1)C(F)(F)F [compound 360]
- Test A disease control rating [1, 3]: 100%
- Test B disease control rating [2, 3]: 0%

SMILES: CCOC(=O)c1cnn(C(C)c2ccc(OCC(O)(O)C(F)(F)F)cc2)c1 (centres unmarked) [compound 35]
- Test A disease control rating [1, 5]: 99%
- Test B disease control rating [2, 6]: 32%
